ChEMBL document CHEMBL4145572, “Non-covalent Small-Molecule Kelch-like ECH-Associated Protein 1-Nuclear Factor Erythroid 2-Related Factor 2 (Keap1-Nrf2) Inhibitors and Their Potential for Targeting Central Nervous System Diseases” (J Med Chem, 2018)

Key:
[1] = Ratio of unbound drug level in mouse brain to plasma; format: ADME; conditions: read-out: K(p,uu,brain)
[2] = system: MDR1; test: Efflux ratio of apparent permeability in MDCK-MDR1 cells at 10 uM up to 120 mins; format: ADME, cell-based, Canis lupus familiaris; conditions: dog
[3] = biological target: T1, Keap1/Nrf2 (Homo sapiens, UniProt Q14145); test: Inhibition of Keap1 kelch domain (unknow origin)/Nrf2-ETGE peptide (unknown origin) interaction by fluorescence polarization assay; format: protein assay
T1 sequence (Q16236 whole entry, the tested form may be a part): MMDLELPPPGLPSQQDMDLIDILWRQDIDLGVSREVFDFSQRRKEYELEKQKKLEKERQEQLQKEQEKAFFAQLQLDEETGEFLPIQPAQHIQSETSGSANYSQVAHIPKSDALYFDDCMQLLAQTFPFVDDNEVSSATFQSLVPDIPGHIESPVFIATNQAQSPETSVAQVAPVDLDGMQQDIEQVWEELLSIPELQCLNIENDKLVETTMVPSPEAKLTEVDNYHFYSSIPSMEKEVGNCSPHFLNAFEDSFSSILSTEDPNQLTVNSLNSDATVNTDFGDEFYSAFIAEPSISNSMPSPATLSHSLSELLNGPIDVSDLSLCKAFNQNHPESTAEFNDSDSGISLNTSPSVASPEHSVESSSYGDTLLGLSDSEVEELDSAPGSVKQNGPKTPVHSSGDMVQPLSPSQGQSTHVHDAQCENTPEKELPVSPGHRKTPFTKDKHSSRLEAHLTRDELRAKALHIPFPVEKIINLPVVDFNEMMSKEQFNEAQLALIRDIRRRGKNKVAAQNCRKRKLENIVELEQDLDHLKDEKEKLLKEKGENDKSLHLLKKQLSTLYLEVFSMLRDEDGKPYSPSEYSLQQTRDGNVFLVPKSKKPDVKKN
T1 sequence (Q14145 whole entry, the tested form may be a part): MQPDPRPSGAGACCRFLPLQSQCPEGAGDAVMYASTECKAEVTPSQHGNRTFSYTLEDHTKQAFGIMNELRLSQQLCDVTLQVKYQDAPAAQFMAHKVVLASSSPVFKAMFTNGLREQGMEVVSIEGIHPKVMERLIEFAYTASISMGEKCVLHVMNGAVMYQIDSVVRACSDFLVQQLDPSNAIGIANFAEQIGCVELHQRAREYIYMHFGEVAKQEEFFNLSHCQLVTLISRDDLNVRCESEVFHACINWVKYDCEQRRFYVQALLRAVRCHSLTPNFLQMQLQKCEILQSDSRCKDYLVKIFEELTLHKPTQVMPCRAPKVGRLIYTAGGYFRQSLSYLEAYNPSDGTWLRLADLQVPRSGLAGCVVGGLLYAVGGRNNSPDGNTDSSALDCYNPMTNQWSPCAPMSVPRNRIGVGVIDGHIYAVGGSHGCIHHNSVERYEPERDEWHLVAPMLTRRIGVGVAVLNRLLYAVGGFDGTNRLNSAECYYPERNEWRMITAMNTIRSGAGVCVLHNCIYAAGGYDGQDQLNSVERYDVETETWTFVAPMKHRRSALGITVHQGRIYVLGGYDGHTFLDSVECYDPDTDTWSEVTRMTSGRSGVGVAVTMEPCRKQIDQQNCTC

[4] = biological target: T1, Keap1/Nrf2; test: Inhibition of Keap1/NRF2 interaction in human BEAS-2B cells assessed as upregulation of NQ01 after 48 hrs by MTT assay; format: cell-based
[5] = biological target: T2, Kelch-like ECH-associated protein 1 (Homo sapiens, UniProt Q14145); test: Inhibition of human Keap1 kelch domain (321 to 609 residues) binding to TAMRA-labeled Nrf2-ETGE peptide after 1 hr by fluorescence polarization assay
T2 sequence (Q14145 whole entry, the tested form may be a part): as above

[6] = biological target: T2, Kelch-like ECH-associated protein 1; test: Activation of human GST-tagged Keap1-DC (321 to 609 residues) expressed in human Huh transformed cells after 16 hrs by ARE-based steady-glo luciferase reporter gene assay; format: cell-based
[7] = biological target: T1, Keap1/Nrf2; test: Inhibition of full length Flag/His-tagged Keap1 kelch domain (unknown origin)/full length Avi-tagged Nrf2 (unknown origin) interaction after 2.25 hrs by TR-FRET assay; format: protein assay
[8] = Ratio of unbound drug level in Mdr1a/1b/Bcrp knock-out mouse brain to plasma; format: ADME; conditions: read-out: K(p,uu,brain)

Row | Compound | Kp uu [1] | efflux ratio at 2 h, 10 µM [2] | IC50 [3] [nM] | other results
1 | O=C(O)[C@H]1CCCC[C@H]1C(=O)N1CCc2ccccc2[C@H]1Cc1ccccc1 | 0.9 | 0.7 | > 100000 | –
2 | CCCC[C@@H]1CCCN1C(=O)c1cccc(-c2cccc(-n3ncc(C(=O)O)c3C3CC3)c2)c1 | – | – | – | EC50 [4]: 79 nM; IC50 [5]: 10 to 100 nM
3 | O=C(NCc1ccccn1)Nc1nnc(-c2ccco2)o1 | – | – | – | EC2 [6]: 1.36 µM
4 | O=C(O)[C@H]1NCCC[C@H]1C(=O)N1CCc2ccccc2[C@H]1CN1C(=O)c2ccccc2C1=O | < 0.01 | – | – | –
5 | O=C1c2ccccc2C(=O)N1C[C@@H]1c2ccccc2CCN1C(=O)C1CCCCC1 | 0.3 | 0.7 | > 100000 | –
6 | O=C(O)[C@H]1CCCC[C@H]1C(=O)N1CCc2ccccc2[C@H]1CN1Cc2ccccc2C1=O | – | 7.5 | 1100 | –
7 | C[C@H](Oc1cccc(-c2cccc(-n3ncc(C(=O)O)c3[C@@H]3C[C@H]3c3cn(C)nn3)c2)c1)C1CCCCC1 | – | – | – | IC50 [7]: < 10 nM
8 | O=C(O)[C@H]1CCCC[C@H]1C(=O)N1CCc2ccccc2[C@H]1CN1C(=O)c2ccccc2C1=O | < 0.01 | – | – | Kp uu [8]: 0.4
